Assay results: article PMC11818041, “Pilot-Scale Production of Sericin-Derived Oligopeptides (SDOs) from Yellow Silk Cocoons: Peptide Characterization and Specifications” (Foods, 2025)
Read-outs that look alike come from different tables or passages of the source. Marks after values point to notes of the source that are not given here. Residues, ends and D or L forms follow the SMILES beside them.

How the values were obtained:
DPP-IV = DPP-IV (Homo sapiens, UniProt P27487); experiment: DPP-IV inhibitory activity assay (GPN substrate); type: biochemical; details: for Inhibition (%) DPP-IV / inhibition at 2500 µM: synthetic peptide at 2.5 mM (final reaction concentration)
[1] = Metal chelating activity (FeCl2/ferrozine); details: reference against which IC50 values were compared
Method: Following a 3 min dark incubation, 50 μL of 5 mM ferrozine was introduced and incubated for 20 min at ambient temperature in the absence of light. Absorbance was quantified at 562 nm. […] The chelating activity was determined using the following formula:Metal chelating activity (%) = [(Acontrol − Asample)/Acontrol] × 100

ACE = ACE (Homo sapiens, UniProt P12821); experiment: ACE inhibitory activity assay (FAPGG substrate); type: biochemical; details: for inhibition at 200 µM: read-out: Inhibition (%) ACE
[2] = set-up: method as in BIOPEP-UWM database; details: fragments in brackets, activities listed jointly; ref BIOPEP-UWM database; cited from earlier work
[3] = ABTS radical scavenging activity; details: standard against which IC50 values were compared
Method: The antioxidant activity was evaluated using a modified ABTS assay according to Laosam et al.. Then, ABTS stock solution was prepared by combining 7.0 mM ABTS with 2.6 mM potassium persulfate in 50 mM phosphate buffer (pH 7.4) and incubated in darkness for 12–16 h before use. Subsequently, the analysis was initiated by combining 20 μL of SDOs samples with 1980 μL of ABTS working solution (stock solution diluted with phosphate buffer to achieve an absorbance of 0.740 ± 0.020 at 734 nm). After 5 min of incubation in the dark, the absorbance was measured at 734 nm. […] With the formula below, the radical scavenging activity was calculated:Scavenging activity (%) = [(Acontrol − Asample)/Acontrol] × 100 where Acontrol and Asample represent the absorbance of control and sample, respectively.

[4] = synthetic peptide, read-out: Inhibition (IC50 Value) ACE
[5] = synthetic peptide, read-out: Inhibition (IC50 Value) DPP-IV
[6] = synthetic peptide at 0.2 mM (final reaction concentration)

Chain of DPP-IV (P27487 whole entry, species assumed): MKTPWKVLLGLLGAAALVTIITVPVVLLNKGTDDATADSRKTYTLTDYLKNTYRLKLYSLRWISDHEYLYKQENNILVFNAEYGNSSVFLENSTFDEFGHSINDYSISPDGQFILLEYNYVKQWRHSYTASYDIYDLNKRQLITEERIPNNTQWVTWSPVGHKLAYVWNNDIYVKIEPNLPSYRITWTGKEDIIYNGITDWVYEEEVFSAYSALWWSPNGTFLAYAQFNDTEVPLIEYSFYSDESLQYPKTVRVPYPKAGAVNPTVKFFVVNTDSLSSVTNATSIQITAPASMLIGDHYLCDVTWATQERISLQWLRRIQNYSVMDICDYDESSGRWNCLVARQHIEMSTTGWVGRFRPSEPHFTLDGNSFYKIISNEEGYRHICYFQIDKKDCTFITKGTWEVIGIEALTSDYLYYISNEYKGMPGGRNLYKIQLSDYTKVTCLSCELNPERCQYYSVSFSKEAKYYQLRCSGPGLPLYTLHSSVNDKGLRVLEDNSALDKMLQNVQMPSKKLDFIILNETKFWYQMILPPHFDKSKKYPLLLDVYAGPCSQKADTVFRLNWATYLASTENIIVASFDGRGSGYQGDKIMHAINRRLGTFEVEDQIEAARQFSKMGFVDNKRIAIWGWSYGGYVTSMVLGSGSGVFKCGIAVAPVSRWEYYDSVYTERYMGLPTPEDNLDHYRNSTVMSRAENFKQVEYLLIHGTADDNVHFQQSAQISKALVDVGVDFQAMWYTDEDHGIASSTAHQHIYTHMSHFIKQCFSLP
Chain of ACE (P12821 30-1306, species assumed): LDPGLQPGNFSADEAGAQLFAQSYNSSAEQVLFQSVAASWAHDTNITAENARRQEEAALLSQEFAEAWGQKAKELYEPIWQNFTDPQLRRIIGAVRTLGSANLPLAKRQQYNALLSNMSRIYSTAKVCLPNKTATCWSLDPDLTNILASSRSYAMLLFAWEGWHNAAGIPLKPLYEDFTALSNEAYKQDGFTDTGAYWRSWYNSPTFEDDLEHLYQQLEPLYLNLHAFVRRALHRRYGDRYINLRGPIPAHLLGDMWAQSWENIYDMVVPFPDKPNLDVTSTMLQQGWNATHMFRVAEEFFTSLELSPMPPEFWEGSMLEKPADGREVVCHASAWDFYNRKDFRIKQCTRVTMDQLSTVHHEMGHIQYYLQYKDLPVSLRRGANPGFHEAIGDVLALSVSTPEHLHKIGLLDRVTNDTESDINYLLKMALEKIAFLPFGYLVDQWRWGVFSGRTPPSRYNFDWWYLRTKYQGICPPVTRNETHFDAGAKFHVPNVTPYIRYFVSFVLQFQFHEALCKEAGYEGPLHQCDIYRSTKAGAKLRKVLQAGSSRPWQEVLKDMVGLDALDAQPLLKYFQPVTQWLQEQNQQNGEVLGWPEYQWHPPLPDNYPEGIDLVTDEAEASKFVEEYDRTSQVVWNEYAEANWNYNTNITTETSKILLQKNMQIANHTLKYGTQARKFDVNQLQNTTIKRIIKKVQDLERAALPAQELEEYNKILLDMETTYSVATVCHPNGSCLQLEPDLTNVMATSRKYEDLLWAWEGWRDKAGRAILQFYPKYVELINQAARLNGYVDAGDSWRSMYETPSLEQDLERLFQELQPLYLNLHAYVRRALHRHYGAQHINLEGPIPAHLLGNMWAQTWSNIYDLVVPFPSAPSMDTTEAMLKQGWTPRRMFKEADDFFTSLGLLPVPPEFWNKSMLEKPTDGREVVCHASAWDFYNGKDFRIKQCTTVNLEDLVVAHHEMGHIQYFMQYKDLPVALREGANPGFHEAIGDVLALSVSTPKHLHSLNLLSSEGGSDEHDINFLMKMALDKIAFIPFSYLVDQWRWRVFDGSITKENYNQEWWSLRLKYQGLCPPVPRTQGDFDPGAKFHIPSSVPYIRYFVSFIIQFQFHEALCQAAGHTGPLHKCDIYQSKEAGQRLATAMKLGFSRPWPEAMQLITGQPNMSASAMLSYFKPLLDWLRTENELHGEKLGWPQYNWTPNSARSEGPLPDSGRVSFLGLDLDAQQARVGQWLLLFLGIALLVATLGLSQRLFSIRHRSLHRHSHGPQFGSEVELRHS

Compound | Inhibition (%) DPP-IV (DPP-IV) | inhibition at 2500 µM (DPP-IV) | IC50 (DPP-IV; [5]) | inhibition at 200 µM (ACE; [6]) | other results
DDK | 37.22 ± 0.43 ^ghij % | – | – | – | –
O=C(O)CN(CCN(CC(=O)O)CC(=O)O)CC(=O)O [EDTA] | – | – | – | – | Metal chelating activity, value of the reference [1]: 0.31 mg/mL
MED | 38.87 ± 0.64 ^fghi % | – | – | – | –
N[C@@H](CS)C(=O)N[C@@H](CCC(=O)O)C(=O)N[C@@H](Cc1ccccc1)C(=O)O [CEF] (H-Cys-Glu-Phe-OH) | – | 23.49 ± 0.14% | – | – | inhibition at 200 µM (ACE): 91.67 ± 0.73%; IC50 (ACE; [4]): 14.86 ± 0.1 µM
EFYE | 36.03 ± 0.51 ^ghij % | – | – | – | –
CC(C)C[C@H](NC(=O)[C@H](CC(=O)O)NC(=O)[C@H](Cc1ccccc1)NC(=O)[C@@H](N)CC(N)=O)C(=O)N1CCC[C@H]1C(=O)N[C@@H](Cc1ccc(O)cc1)C(=O)N[C@@H](Cc1c[nH]cn1)C(=O)O [NFDLPYH] (H-NFDLPYH-OH) | – | 55.54 ± 0.34% | 2380 ± 30 µM | 69.53 ± 0.03% | IC50 (ACE; [4]): 77.2 ± 2.7 µM
AEF | 21.93 ± 0.35 ^n % | – | – | – | Inhibition (%) ACE (ACE; [6]): 6.04 ± 1.41 ^o %
CSCC[C@H](NC(=O)[C@@H](N)Cc1c[nH]c2ccccc12)C(=O)N[C@@H](Cc1c[nH]cn1)C(=O)N[C@H](C(=O)N[C@@H](CCCNC(=N)N)C(=O)O)C(C)C [WMHVR] (H-WMHVR-OH) | – | 33.1 ± 2.67% | – | 61.3 ± 0.88% | IC50 (ACE; [4]): 118 ± 1.82 µM
EFL | 38.00 ± 1.38 ^fghi % | – | – | – | –
CC(C)C[C@H](NC(=O)[C@H](CC(=O)O)NC(=O)[C@@H]1CCCN1C(=O)[C@@H](N)Cc1ccc(O)cc1)C(=O)O [YPDL] (H-YPDL-OH) | – | 48.3 ± 0.59% | – | 11.8 ± 2.26% | IC50 (DPP-IV): 2390 ± 60 µM; IC50 (ACE): > 200 µM
CC(C)C[C@H](NC(=O)[C@H](CC(N)=O)NC(=O)CNC(=O)[C@@H](N)CC(C)C)C(=O)N[C@@H](Cc1ccc(O)cc1)C(=O)N[C@@H](CC(=O)O)C(=O)N[C@@H](Cc1ccc(O)cc1)C(=O)O [LGNLYDY] (H-LGNLYDY-OH) | – | 42.88 ± 0.09% | 2940 ± 90 µM | 58.6 ± 2.61% | IC50 (ACE; [4]): 162.1 ± 1.19 µM
N=C(N)NCCC[C@H](NC(=O)[C@@H]1CCCN1C(=O)[C@H](Cc1ccccc1)NC(=O)[C@H](CCC(=O)O)NC(=O)[C@H](CS)NC(=O)[C@@H](N)Cc1c[nH]c2ccccc12)C(=O)O [WCEFPR] (H-WCEFPR-OH) | – | 41.1 ± 0.43% | 2820 ± 220 µM | 75.4 ± 1.53% | IC50 (ACE; [4]): 21.2 ± 1.86 µM
MEH | 37.20 ± 3.18 ^ghij % | – | – | – | Inhibition (%) ACE (ACE; [6]): 11.20 ± 0.04 ^n %
CC(C)C[C@H](NC(=O)[C@H](CC(C)C)NC(=O)[C@H](CC(C)C)NC(=O)[C@H](Cc1ccccc1)NC(=O)[C@@H](N)CCC(=O)O)C(=O)N[C@@H](Cc1c[nH]cn1)C(=O)N[C@@H](C)C(=O)O [EFLLLHA] (H-EFLLLHA-OH) | – | 40.5 ± 1.74% | 3570 ± 130 µM | 58.3 ± 0.92% | IC50 (ACE; [4]): 138.3 ± 1.04 µM
PYH | 29.97 ± 0.60 ^kl % | – | – | – | Inhibition (%) ACE (ACE; [6]): 15.69 ± 1.82 ^klm %
CC(C)C[C@H](NC(=O)[C@@H](N)Cc1ccc(O)cc1)C(=O)N[C@@H](Cc1ccc(O)cc1)C(=O)N[C@@H](CC(N)=O)C(=O)N[C@@H](C)C(=O)NCC(=O)N[C@@H](C)C(=O)N[C@@H](CCCNC(=N)N)C(=O)O (H-YLYNAGAR-OH) | – | 37 ± 0.95% | – | 89.2 ± 1.07% | IC50 (ACE; [4]): 77.28 ± 0.05 µM
CC(C)C[C@H](NC(=O)[C@H](CCC(N)=O)NC(=O)[C@H](CCC(N)=O)NC(=O)[C@H](CO)NC(=O)[C@H](CC(N)=O)NC(=O)[C@@H](N)CCC(=O)O)C(=O)N[C@@H](Cc1c[nH]cn1)C(=O)O [ENSQQLH] (H-ENSQQLH-OH) | – | 40.4 ± 4.54% | 2540 ± 100 µM | – | –

Compound | Inhibition (%) DPP-IV (DPP-IV) | inhibition at 2500 µM (DPP-IV) | IC50 (DPP-IV; [5]) | inhibition at 200 µM (ACE; [6]) | other results
LFD | 33.85 ± 1.27 ^ijk % | – | – | – | –
QTALVELLQ [SDO peptide identified in fraction F1] | 22.20 ± 0.26 ^n % | – | – | – | –
EFF | 30.57 ± 1.97 ^kl % | – | – | – | –
LFDLMEH [SDO peptide identified in fraction F8] | 37.28 ± 0.69 ^ghij % | – | – | – | –
YDY | – | – | – | – | Previous Reported Bioactivity of the Fragments (BIOPEP-UWM Database) [2]: (YDY) Antioxidative
CC(C)C[C@H](NC(=O)[C@H](CC(=O)O)NC(=O)[C@@H]1CCCN1C(=O)[C@@H](N)Cc1ccc(O)cc1)C(=O)N1CCC[C@H]1C(=O)N[C@@H](Cc1ccc(O)cc1)C(=O)N[C@@H](Cc1c[nH]cn1)C(=O)O [YPDLPYH] (H-YPDLPYH-OH) | – | 56.9 ± 1.47% | 1350 ± 40 µM | 86 ± 1.66% | IC50 (ACE; [4]): 18.1 ± 0.05 µM
CC(C)C[C@H](NC(=O)[C@H](Cc1c[nH]c2ccccc12)NC(=O)[C@@H](NC(=O)[C@H](C)NC(=O)[C@@H](N)CC(C)C)[C@@H](C)O)C(=O)N1CCC[C@H]1C(=O)N[C@@H](CCCNC(=N)N)C(=O)O [LATWLPR] (H-LATWLPR-OH) | – | 47.4 ± 1.73% | 2030 ± 150 µM | 36.1 ± 0.54% | –
CC(C)C[C@H](NC(=O)[C@H](CC(=O)O)NC(=O)[C@H](Cc1ccccc1)NC(=O)[C@H](Cc1ccccc1)NC(=O)[C@@H](N)CCC(=O)O)C(=O)N1CCC[C@H]1C(=O)N[C@@H](Cc1ccc(O)cc1)C(=O)N[C@@H](Cc1c[nH]cn1)C(=O)O (H-EFFDLPYH-OH) | – | 45.7 ± 1.86% | 2760 ± 30 µM | 63.4 ± 1.6% | IC50 (ACE; [4]): 158 ± 2.2 µM
QTA | 10.54 ± 1.90 ^o % | – | – | – | Inhibition (%) ACE (ACE; [6]): 16.48 ± 1.26 ^kl %
WGWNPR | 37.45 ± 1.55 ^ghij % | – | – | – | Inhibition (%) ACE (ACE; [6]): 23.69 ± 2.90 ^j %
CC(C)C[C@H](NC(=O)[C@H](CO)NC(=O)[C@H](C)NC(=O)[C@H](CCC(=O)O)NC(=O)[C@H](C)NC(=O)[C@@H](N)C(C)C)C(=O)N1CCC[C@H]1C(=O)N[C@@H](CCCNC(=N)N)C(=O)O (H-VAEASLPR-OH) | – | 55.2 ± 0.69% | 1920 ± 60 µM | 3.89 ± 0.61% | –
CC(C)C[C@H](N)C(=O)N[C@@H](Cc1ccccc1)C(=O)N[C@@H](CC(=O)O)C(=O)N[C@@H](CCC(N)=O)C(=O)N1CCC[C@H]1C(=O)N[C@@H](Cc1ccc(O)cc1)C(=O)N[C@@H](Cc1ccccc1)C(=O)O [LFDQPYF] (H-LFDQPYF-OH) | – | 45 ± 2.04% | 3170 ± 170 µM | 42.4 ± 2.64% | –
NPR | 36.70 ± 0.09 ^ghij % | – | – | – | Inhibition (%) ACE (ACE; [6]): 17.84 ± 0.68 ^k %
Cc1c(C)c2c(c(C)c1O)CCC(C)(C(=O)O)O2 (stereo not shown) [Trolox] | – | – | – | – | ABTS radical scavenging, value of the standard [3]: 0.27 mg/mL
LGN | 35.84 ± 0.09 ^hij % | – | – | – | Inhibition (%) ACE (ACE; [6]): 44.11 ± 0.96 ^g %
CC(C)C[C@H](NC(=O)[C@H](CCC(=O)O)NC(=O)[C@H](Cc1ccc(O)cc1)NC(=O)[C@H](Cc1ccccc1)NC(=O)[C@@H](N)CCC(=O)O)C(=O)N[C@@H](C)C(=O)N[C@@H](CCCNC(=N)N)C(=O)O [EFYELAR] (H-EFYELAR-OH) | – | 56.2 ± 1.55% | 1430 ± 30 µM | 34 ± 2.33% | –
